Experimental data published in paper PMC11187126, “Structure and dynamics of the pyroglutamylated RF-amide peptide QRFP receptor GPR103” (Nature Communications, 2024).
Where two headings read alike, the source gives them in different places. No end group written: not given here.

Biological target: T1, GPR103 C327^7.48A (Homo sapiens, UniProt Q96P65, C327A)
T1 construct: we used human full-length QRFPR-encoding plasmids; expressed in transfected cells; host or cells: HEK293 cells (HEK293A in the flow cytometry section), pCAGGS vector
T1 sequence (Q96P65 1-431 C327A): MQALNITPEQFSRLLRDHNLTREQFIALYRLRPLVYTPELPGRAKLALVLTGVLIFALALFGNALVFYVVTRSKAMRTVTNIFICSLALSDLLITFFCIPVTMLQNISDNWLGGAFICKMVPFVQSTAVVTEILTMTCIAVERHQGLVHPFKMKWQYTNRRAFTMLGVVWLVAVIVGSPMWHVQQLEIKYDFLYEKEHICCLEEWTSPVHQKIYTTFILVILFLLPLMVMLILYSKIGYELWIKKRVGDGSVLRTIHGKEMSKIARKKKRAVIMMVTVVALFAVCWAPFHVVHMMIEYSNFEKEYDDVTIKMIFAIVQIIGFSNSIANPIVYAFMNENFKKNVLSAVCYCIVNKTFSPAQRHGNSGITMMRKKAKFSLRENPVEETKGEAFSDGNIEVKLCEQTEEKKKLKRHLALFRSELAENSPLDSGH
Assay: TGFα shedding assay; Exp. level WT (1:5)
Format: cell-based
Protocol: For the TGFα shedding assay and the flow cytometry analysis, we used human full-length QRFPR-encoding plasmids. Specifically, GPR103 was N-terminally modified with an HA signal sequence followed by a FLAG epitope and then a flexible linker ([…]; the FLAG epitope is underlined) and inserted into the pCAGGS vector. Plasmid encoding GPR103 mutants were generated using Quickchange Site-Directed Mutagensis kit (Agilent).
The TGFα shedding assay was performed as described previously with minor modifications. Plasmid transfection was performed in a 6-well plate with a mixture of 500 ng (per well in a 6-well plate) AP-TGFα-encoding plasmid and 200 ng GPR103-encoding plasmid. After 1-day culture, the transfected cells were harvested by trypsinization, pelleted by centrifugation at 190 × g for 5 min, and washed once with 5 mM HEPES (pH 7.4)-containing Hank’s Balanced Salt Solution (HBSS). After centrifugation, the cells were resuspended in 8 mL of the HEPES-containing HBSS. The cell suspension was seeded in a 96-well culture plate (cell plate) at a volume of 90 μL (per well hereafter) and incubated in a 37 °C incubator with 5% CO2 for 30 min. […] After spinning the cell plates at 190 × g for 2 min, 80 μL of conditioned media was transferred to an empty 96-well plate (conditioned media (CM) plate). Then, 80 μL of AP reaction solution (10 mM p-nitrophenylphosphate (p-NPP), 120 mM Tris-HCl (pH 9.5), 40 mM NaCl, and 10 mM MgCl2) was dispensed into the cell plates and the CM plates. Absorbance at 405 nm of the plates was measured using a microplate reader (SpectraMax 340 PC384, Molecular Devices) before and after 1-h incubation at room temperature. Ligand-induced AP-TGFα release was calculated by subtracting spontaneous AP-TGFα release signal from ligand-induced AP-TGFα release signal. The AP-TGFα release signals were fitted to a four-parameter sigmoidal concentration–response curve, using the Prism 10 software (GraphPad Prism). For each replicate experiment, the pEC50 parameter (negative logarithmic values of EC50 values) of the individual GPR103 mutants were normalized to that of the wild-type GPR103 performed in parallel, and resulting ∆pEC50 values were used to denote ligand response activity of the mutants. […]
Exp. le vel: WT (1:5 0)Exp. le vel: WT (1:5 0)Exp. le vel: WT (1:5 0)Exp. le vel: WT (1:2 0)Exp. le vel: WT (1:2 0)Exp. le vel: WT (1:1 0) […]
L1 4N - t e r mA F2 5N - t e r mA I 2 6N - t e r mA Y 2 9N - t e r mA C 9 82 .5 7A T10 22 .6 1A Exp . l eve l: WT (1 :5)Exp . l evel : >WT (1 :1)Exp. le vel: WT (1:2 0)Exp. le vel: WT (1:2 0)Exp. le vel: WT (1:5 0)Exp . l eve l: WT (1 :1) […]
Exp. le vel: WT (1:1 0)Exp. le vel: WT (1:2 0) C 1 1 83 .2 5AExp. le vel: WT (1:5 0)Exp. le vel: WT (1:5 0)Exp. le vel: WT (1:2 0)Exp . l eve l: WT (1 :5) […]
Exp. le vel: WT (1:5 0)Exp. le vel: WT (1:1 0)Exp. le vel: WT (1:5 0) E203ECL2AExp . l evel : >WT (1 :1)Exp. le vel: WT (1:5 0)Exp. le vel: WT (1:5 0) […]
Exp . l eve l: WT (1 :1) F28Exp. le vel: WT (1:5 0) C 2 8 56 .4 7AExp. le vel: WT (1:2 0) WExp. le vel: WT (1:2 0) F28Exp. le vel: WT (1:5 0)Exp . l evel : >WT (1 :1) […]
Exp. le vel: WT (1:5 0)Exp. le vel: WT (1:5 0) C 3 2 77 .4 8AExp . l eve l: WT (1 :5)Exp . l evel : >WT (1 :1)Exp . l evel : >WT (1 :1) […]
Suppl eme nt ary Figure 1 | Mutational analysis of GPR103. […]
mutants. Data are presented as mean values ± SEM, normally n=3-5; dots), each performed in triplicate. b-d Cell-surface expression (b) and QRFP26-in-duced activation of GPR103 (c, d) were analyzed by the flow cytometry and the TGFα shedding assay, respectively. From the concentration–response curves (a), Emax (c) and ΔpEC50 (d) values relative to the wild type were calculated. Colors in the mutant bars indicate an expression level matching to that of titrated wild type. Statistical analyses were performed using the ordinary one-way ANOVA followed by Dunnett tests with the expression-matched […]

Emax (Exp. #1): 95.99 % WT
Emax (Exp. #2): 96.35 % WT
Emax (Exp. #3): 104.77 % WT
Emax (mean, read-out: Emax): 99%
EC50 (n = 3): 4.27 nM
Emax (n = 3, read-out: Emax): 104 ± 2.3%
Substance: TSGPLGNLAEELNGYSRKKGGFSFRF-NH2 [QRFP26]
